Test results taken from the supplement of paper PMC10307832.

Tests used:
Test in all cases: relative viability (nuclei count vs DMSO), 5 days (fraction); higher = more cells survive
[1] = compound: C[C@@H](N)c1ccc(C(=O)Nc2ccnc3[nH]ccc23)cc1 + Cc1nc(NC(=O)N2CCC[C@H]2C(N)=O)sc1-c1ccnc(C(C)(C)C(F)(F)F)c1 [Alpelisib] (partner 2 µM)
Summary of the method: (§1)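 Nuclei were stained with Hoechst during a one-step fixation (final 0.05% Triton X-100, 1% formaldehyde, 1 ug/ml Hoechst) carried out 5 days after dosing, then counted on 4× images. The cells, lung cancer lines in 1536-well plates, had been dosed by pin tool the day after seeding with one drug alone or a fixed anchor-drug dose plus five library-drug doses (not always all listed) in √10 steps. Relative viability is the nuclei count in treated wells divided by that in vehicle wells, and each value is the median of duplicate plates.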

[2] = compound: C1CNCCC1C2=CC(=NN2)C3=CC=NC=C3 + COc1cc2c(Oc3ccc(NC(=O)C4(C(=O)Nc5ccc(F)cc5)CC4)cc3F)ccnc2cc1OCCCN1CCOCC1 [Foretinib] (partner 0.25 µM)
Summary of the method: as §1

[3] = compound: C[C@@H](N)c1ccc(C(=O)Nc2ccnc3[nH]ccc23)cc1 + CC1(C)CCC(c2ccc(Cl)cc2)=C(CN2CCN(c3ccc(C(=O)NS(=O)(=O)c4ccc(N[C@H](CCN5CCOCC5)CSc5ccccc5)c(S(=O)(=O)C(F)(F)F)c4)cc3)CC2)C1 [Navitoclax] (partner 0.5 µM)
Summary of the method: as §1

Tanzisertib + Trametinib = compound: O[C@H]1CC[C@H](Nc2ncc3nc(Nc4c(F)cc(F)cc4F)n([C@H]4CCOC4)c3n2)CC1 [Tanzisertib] + CC(=O)Nc1cccc(-n2c(=O)n(C3CC3)c(=O)c3c(Nc4ccc(I)cc4F)n(C)c(=O)c(C)c32)c1 [Trametinib] (partner 0.02 µM)
Summary of the method: as §1

| Cell Line | relative viability ([1]; first compound 0.04 µM) | relative viability ([1]; first compound 0.1265 µM) | relative viability ([1]; first compound 0.4 µM) | relative viability ([1]; first compound 1.265 µM) | relative viability ([1]; first compound 4 µM) | relative viability ([2]; first compound 0.08 µM) | relative viability ([2]; first compound 0.8 µM) | relative viability ([2]; first compound 2.53 µM) | relative viability ([2]; first compound 8 µM) | relative viability ([3]; first compound 0.04 µM) | relative viability ([3]; first compound 0.1265 µM) | relative viability ([3]; first compound 0.4 µM) | relative viability ([3]; first compound 1.265 µM) | relative viability ([3]; first compound 4 µM) | relative viability (Tanzisertib + Trametinib; first compound 0.08 µM) | relative viability (Tanzisertib + Trametinib; first compound 0.253 µM) | relative viability (Tanzisertib + Trametinib; first compound 0.8 µM) | relative viability (Tanzisertib + Trametinib; first compound 2.53 µM) | relative viability (Tanzisertib + Trametinib; first compound 8 µM) |
| --- | --- | --- | --- | --- | --- | --- | --- | --- | --- | --- | --- | --- | --- | --- | --- | --- | --- | --- | --- |
| RERF-LC-KJ | 0.899 | 0.939 | 0.809 | 0.945 | 0.851 | 0.871 | 0.942 | 0.837 | 0.924 | 0.962 | 0.99 | 1.42 | 1.1 | 0.95 | 0.863 | 0.919 | 0.959 | 0.782 | 0.834 |
| SK-LU-1 | 1.03 | 0.973 | 0.986 | 0.888 | 0.704 | 0.813 | 0.946 | 0.951 | 0.885 | 0.922 | 0.786 | 0.778 | 0.633 | 0.503 | 0.576 | 0.507 | 0.528 | 0.54 | 0.471 |
| SK-MES-1 | 1 | 0.986 | 1.01 | 0.786 | 0.834 | 0.85 | 0.855 | 1.05 | 1 | 1.4 | 1.39 | 1.34 | 1.33 | 1.14 | 0.618 | 0.549 | 0.54 | 0.493 | 0.385 |
| SW 1573 | 0.852 | 0.984 | 0.832 | 0.563 | 0.509 | 0.679 | 0.967 | 0.901 | 1.03 | 1.14 | 0.927 | 1.12 | 0.774 | 0.426 | 0.555 | 0.514 | 0.547 | 0.521 | 0.456 |
